Source: patent publication US7135467B2, “HIV integrase inhibitors” (priority 2003, dated 2006)
pIC50: −log10 of the molar value.

What follows are compounds tested against T1, HIV-integrase (recombinant integrase) (Human immunodeficiency virus type 1 group M subtype B, UniProt P12497) (assay: HIV-Integrase Inhibition Activity (SPA bead strand-transfer assay)). Settings: recombinant integrase on biotin labeled substrate DNA/SPA beads, P33 labeled target DNA; read-out: Activity (IC50 against HIV-integrase).
T1 construct: Recombinant integrase (0.26 ng) was incubated with the beads
Format: biochemical
Protocol: To evaluate in-vitro activity against HIV-integrase, 5 pmole of biotin labeled substrate DNA was bound to 100 μg of Streptavidin coated PVT SPA beads (Amersham Pharmacia Biotech). Recombinant integrase (0.26 ng) was incubated with the beads for 90 min at 37° C. Unbound enzyme was removed by washing the complex followed by addition of inhibitors and 0.1 fmol of P33 labeled target DNA. The reaction was stopped by adding EDTA to a final concentration of 10 mM. Samples were counted in TopCountNXT (Packard) and the CPM was used as a measure of integration. The reaction condition was as described in A. Engelman and R. Craigie, J. Virol. 69, 5908–5911 (1995). The sequences of substrate and target DNA were described in Nucleic Acid Research 22, 1121–1122 (1994). Activity equal to A refers to a compound having IC50=0.003 to 0.10 μM while B and C denote compounds the following IC50=0.1 to 1.0 μM and IC50≧1.0 μM respectively.
Compound `Cc1cc(CNC(=O)c2nc(N3CCCCC3CCO)n(C)c(=O)c2O)ccc1F` (centres unmarked) [Compound 99, N-[(4-fluoro-3-methylphenyl)methyl]-1,6-dihydro-5-hydroxy-2-[2-(2-hydroxyethyl)-1-piperidinyl]-1-methyl-6-oxo-4-pyrimidinecarboxamide] has a pIC50 of 7.00 to 8.52.
`Cn1c(N2CCCC2)nc(C(=O)NCc2ccc(F)cc2)c(O)c1=O` [Compound 91, N-[(4-fluorophenyl)methyl]-1,6-dihydro-5-hydroxy-1-methyl-6-oxo-2-(1-pyrrolidinyl)-4-pyrimidinecarboxamide] showed a pIC50 of 7.00 to 8.52.
In the case of `Cc1cc(CNC(=O)c2nc(N3CCCCS3(=O)=O)n(C)c(=O)c2O)ccc1F` [Compound 13, N-[(4-fluoro-3-methylphenyl)methyl]-1,6-dihydro-5-hydroxy-1-methyl-6-oxo-2-(tetrahydro-1,1-dioxido-2H-1,2-thiazin-2-yl)-4-pyrimidinecarboxamide], the pIC50 was 7.00 to 8.52.
With `Cn1c(N2CCCCS2(=O)=O)nc(C(=O)NCc2ccc(Cl)cc2Cl)c(O)c1=O` [Compound 43, N-[(2,4-dichlorophenyl)methyl]-1,6-dihydro-5-hydroxy-1-methyl-6-oxo-2-(tetrahydro-1,1-dioxido-2H-1,2-thiazin-2-yl)-4-pyrimidinecarboxamide] the pIC50 was 6.00 to 7.00.
`Cn1c(N2CCCCS2(=O)=O)nc(C(=O)NCc2cccc(Cl)c2)c(O)c1=O` [Compound 5, N-[(3-chlorophenyl)methyl]-1,6-dihydro-5-hydroxy-1-methyl-6-oxo-2-(tetrahydro-1,1-dioxido-2H-1,2-thiazin-2-yl)-4-pyrimidinecarboxamide] gave a pIC50 of 7.00 to 8.52.
Work on `Cn1c(N2CCN(c3ccccn3)CC2)nc(C(=O)NCc2ccc(F)cc2)c(O)c1=O` [Compound 75, N-[(4-fluorophenyl)methyl]-1,6-dihydro-5-hydroxy-1-methyl-6-oxo-2-[4-(2-pyridinyl)-1-piperazinyl]-4-pyrimidinecarboxamide] yielded a pIC50 of 7.00 to 8.52.
`Cc1cc(CNC(=O)c2nc(-n3ncccc3=O)n(C)c(=O)c2O)ccc1F` [Compound 101, N-[(4-fluoro-3-methylphenyl)methyl]-1,6-dihydro-5-hydroxy-1-methyl-6-oxo-2-(6-oxo-1(6H)-pyridazinyl)-4-pyrimidinecarboxamide] was tested, and the pIC50 was 7.00 to 8.52.
`Cc1cc(CNC(=O)c2nc(N3CCC(O)CC3)n(C)c(=O)c2O)ccc1F` [Compound 66, N-[(4-fluoro-3-methylphenyl)methyl]-1,6-dihydro-5-hydroxy-2-(4-hydroxy-1-piperidinyl)-1-methyl-6-oxo-4-pyrimidinecarboxamide] showed a pIC50 of 7.00 to 8.52.
With `Cn1c(N2CCC(C(N)=O)CC2)nc(C(=O)NCc2ccc(F)cc2)c(O)c1=O` [Compound 94, 2-[4-(aminocarbonyl)-1-piperidinyl]-N-[(4-fluorophenyl)methyl]-1,6-dihydro-5-hydroxy-1-methyl-6-oxo-4-pyrimidinecarboxamide] the pIC50 was 7.00 to 8.52.
For `Cn1c(N2CCCCS2(=O)=O)nc(C(=O)NCc2ccco2)c(O)c1=O` [Compound 33, N-(2-furanylmethyl)-1,6-dihydro-5-hydroxy-1-methyl-6-oxo-2-(tetrahydro-1,1-dioxido-2H-1,2-thiazin-2-yl)-4-pyrimidinecarboxamide], the pIC50 was 6.00 to 7.00.
In the case of `Cn1c(N2CCNCC2)nc(C(=O)NCc2ccc(F)cc2)c(O)c1=O` [Compound 69, N-[(4-fluorophenyl)methyl]-1,6-dihydro-5-hydroxy-1-methyl-6-oxo-2-(1-piperazinyl)-4-pyrimidinecarboxamide], the pIC50 was 6.00 to 7.00.
For `Cc1ccccc1CNC(=O)c1nc(N2CCCCS2(=O)=O)n(C)c(=O)c1O` [Compound 37, 1,6-dihydro-5-hydroxy-1-methyl-N-[(2-methylphenyl)methyl]-6-oxo-2-(tetrahydro-1,1-dioxido-2H-1,2-thiazin-2-yl)-4-pyrimidinecarboxamide], the pIC50 was 6.00 to 7.00.
With `Cn1c(N2CCCCC2CCO)nc(C(=O)NCc2ccc(F)cc2)c(O)c1=O` (centres unmarked) [Compound 98, N-[(4-fluorophenyl)methyl]-1,6-dihydro-5-hydroxy-2-[2-(2-hydroxyethyl)-1-piperidinyl]-1-methyl-6-oxo-4-pyrimidinecarboxamide] the pIC50 was 7.00 to 8.52.
`Cn1c(N2CCCCS2(=O)=O)nc(C(=O)NCc2ccc(F)cc2)c(O)c1=O` [Compound 1, N-[(4-fluorophenyl)methyl]-1,6-dihydro-5-hydroxy-1-methyl-6-oxo-2-(tetrahydro-1,1-dioxido-2H-1,2-thiazin-2-yl)-4-pyrimidinecarboxamide] showed a pIC50 of 7.00 to 8.52.
`Cc1ncnn1-c1nc(C(=O)NCc2ccc(Cl)c(Cl)c2)c(O)c(=O)n1C` [Compound 62, N-[(3,4-dichlorophenyl)methyl]-1,6-dihydro-5-hydroxy-1-methyl-2-(5-methyl-1H-1,2,4-triazol-1-yl)-6-oxo-4-pyrimidinecarboxamide] was tested, and the pIC50 was 7.00 to 8.52.
`Cn1c(N2CCCCS2(=O)=O)nc(C(=O)NCc2ccccc2F)c(O)c1=O` [Compound 28, N-[(2-fluorophenyl)methyl]-1,6-dihydro-5-hydroxy-1-methyl-6-oxo-2-(tetrahydro-1,1-dioxido-2H-1,2-thiazin-2-yl)-4-pyrimidinecarboxamide] was tested, and the pIC50 was 6.00 to 7.00.
In the case of `Cn1c(N2CCCCS2(=O)=O)nc(C(=O)NCCc2ccccc2)c(O)c1=O` [Compound 31, 1,6-dihydro-5-hydroxy-1-methyl-6-oxo-N-(2-phenylethyl)-2-(tetrahydro-1,1-dioxido-2H-1,2-thiazin-2-yl)-4-pyrimidinecarboxamide], the pIC50 was at most 6.00.
Compound `Cn1c(N2CCN(c3ncccn3)CC2)nc(C(=O)NCc2ccc(F)cc2)c(O)c1=O` [Compound 77, N-[(4-fluorophenyl)methyl]-1,6-dihydro-5-hydroxy-1-methyl-6-oxo-2-[4-(2-pyrimidinyl)-1-piperazinyl]-4-pyrimidinecarboxamide] has a pIC50 of 7.00 to 8.52.
Compound `Cn1c(N2CCCCS2(=O)=O)nc(C(=O)NCCc2cccc(Cl)c2)c(O)c1=O` [Compound 30, N-[2-(3-chlorophenyl)ethyl]-1,6-dihydro-5-hydroxy-1-methyl-6-oxo-2-(tetrahydro-1,1-dioxido-2H-1,2-thiazin-2-yl)-4-pyrimidinecarboxamide] has a pIC50 of 6.00 to 7.00.
For `Cn1c(N)nc(C(=O)NCc2ccc(F)cc2)c(O)c1=O` [Compound 63, 2-amino-5-hydroxy-1-methyl-6-oxo-1,6-dihydro-pyrimidine-4-carboxylic acid 4-fluorobenzylamine], the pIC50 was 7.00 to 8.52.
Work on `Cn1c(N2CCCCS2(=O)=O)nc(C(=O)NCc2cccc(OC(F)(F)F)c2)c(O)c1=O` [Compound 48, 1,6-dihydro-5-hydroxy-1-methyl-6-oxo-2-(tetrahydro-1,1-dioxido-2H-1,2-thiazin-2-yl)-N-[[3-(trifluoromethoxy)phenyl]methyl]-4-pyrimidinecarboxamide] yielded a pIC50 of 6.00 to 7.00.
With `Cn1c(N2CCCCS2(=O)=O)nc(C(=O)NCc2ccc(F)c(F)c2)c(O)c1=O` [Compound 15, N-[(3,4-difluorophenyl)methyl]-1,6-dihydro-5-hydroxy-1-methyl-6-oxo-2-(tetrahydro-1,1-dioxido-2H-1,2-thiazin-2-yl)-4-pyrimidinecarboxamide] the pIC50 was 7.00 to 8.52.
With `Cn1c(N2CCCCS2(=O)=O)nc(C(=O)NCCc2ccc(Cl)cc2)c(O)c1=O` [Compound 26, N-[2-(4-chlorophenyl)ethyl]-1,6-dihydro-5-hydroxy-1-methyl-6-oxo-2-(tetrahydro-1,1-dioxido-2H-1,2-thiazin-2-yl)-4-pyrimidinecarboxamide] the pIC50 was at most 6.00.
`Cc1ccc(CNC(=O)c2nc(N3CCCCS3(=O)=O)n(C)c(=O)c2O)cc1` [Compound 8, 1,6-dihydro-5-hydroxy-1-methyl-N-[(4-methylphenyl)methyl]-6-oxo-2-(tetrahydro-1,1-dioxido-2H-1,2-thiazin-2-yl)-4-pyrimidinecarboxamide] showed a pIC50 of 7.00 to 8.52.
With `Cc1cc(CNC(=O)c2nc(N3CCC3)n(C)c(=O)c2O)ccc1F` [Compound 93, 2-(1-azetidinyl)-N-[(4-fluoro-3-methylphenyl)methyl]-1,6-dihydro-5-hydroxy-1-methyl-6-oxo-4-pyrimidinecarboxamide] the pIC50 was 7.00 to 8.52.
For `Cn1c(N2CCCCS2(=O)=O)nc(C(=O)NCc2ccc(F)cc2F)c(O)c1=O` [Compound 17, N-[(2,4-difluorophenyl)methyl]-1,6-dihydro-5-hydroxy-1-methyl-6-oxo-2-(tetrahydro-1,1-dioxido-2H-1,2-thiazin-2-yl)-4-pyrimidinecarboxamide], the pIC50 was 7.00 to 8.52.
`Cc1ccc(CNC(=O)c2nc(N3CCCCS3(=O)=O)n(C)c(=O)c2O)o1` [Compound 23, 1,6-dihydro-5-hydroxy-1-methyl-N-[(5-methyl-2-furanyl)methyl]-6-oxo-2-(tetrahydro-1,1-dioxido-2H-1,2-thiazin-2-yl)-4-pyrimidinecarboxamide] gave a pIC50 of 7.00 to 8.52.
Work on `Cn1c(N2CCCCS2(=O)=O)nc(C(=O)NCC(c2ccccc2)c2ccccc2)c(O)c1=O` [Compound 25, N-(2,2-diphenylethyl)-1,6-dihydro-5-hydroxy-1-methyl-6-oxo-2-(tetrahydro-1,1-dioxido-2H-1,2-thiazin-2-yl)-4-pyrimidinecarboxamide] yielded a pIC50 of at most 6.00.
With `Cn1c(N2CCCCS2(=O)=O)nc(C(=O)NCc2cc(Cl)ccc2Cl)c(O)c1=O` [Compound 42, N-[(2,5-dichlorophenyl)methyl]-1,6-dihydro-5-hydroxy-1-methyl-6-oxo-2-(tetrahydro-1,1-dioxido-2H-1,2-thiazin-2-yl)-4-pyrimidinecarboxamide] the pIC50 was 6.00 to 7.00.
